From article PMC8621570, “Mechanistic Studies of Antibiotic Adjuvants Reducing Kidney’s Bacterial Loads upon Systemic Monotherapy” (Pharmaceutics, 2021)
Converted amounts (≈) assume the structure as drawn. Like-named read-outs stand apart in the source and are kept apart here. Where a SMILES comes first, the peptide text is derived from it. [ ]: non-standard residue; d: D form. The star is where a group is joined. Myristoyl = CCCCCCCCCCCCCC(=O)*; 12Ado = NCCCCCCCCCCCC(=O)O; Orn = NCCC[C@H](N)C(=O)O

What was measured:
[1] = Hydrophobicity by reversed phase HPLC elution; format: physicochemical; conditions: % acetonitrile required for elution in reversed phase HPLC, C18 column; rounded to nearest whole number
[2] = Peptide self-assembly (critical aggregation concentration) by static light scattering; format: physicochemical; conditions: light scattering in PBS
Description: (§1) Peptide self-assembly was determined by static light scattering measurements as described. Hemolysis was determined by measuring hemoglobin leakage from washed human RBCs, as described. Minimal inhibitory concentration (MIC) was determined using the microdilution assay, as described. Bactericidal kinetics were determined by mixing bacteria with rifampin, OAC, or their combinations, as described. Data were obtained from three independent assays performed in duplicate.

[3] = system: washed human erythrocytes; format: cell-based; conditions: red cells of human, 3 h
Description: as §1

[4] = system: 12 GNB strains; format: cell-based; conditions: OD measurements, mean of 12 GNB strains
Description: (§2) Bacteria:Escherichia coli strains: 25922 and 35218 (ATCC, Manassas, VA, USA), 14182 (clinical isolate), Ag100 and Ag100A [34] (ΔacrAB) are two K-12 isogenic mutantsand the engineered mutant ML-35p. Additional ESKAPE species tested: Klebsiella pneumoniae strains 1287 and 224 (clinical isolates), Acinetobacter baumannii ATCC strain 19606, Pseudomonas aeruginosa ATCC strains 9027 and 27853. Bacteria were grown in Luria–Bertani (LB) broth (0.5% NaCl, 0.5% yeast extract, 1% tryptone, pH = 7), except for E. coli ML-35p that was grown in tryptic-soy broth.
as §1

[5] = system: E. coli 25922; format: cell-based, Escherichia coli; conditions: 25922, 24 h
Description: Sensitization to plasma components was assessed by mixing bacteria with serial two-fold OAC dilutions in 80% human plasma (Israel Blood Bank) or plasma from the specified species (Technion preclinical research authority or VetSource), as described. Data were obtained from three independent experiments.
Figure 3 Animal plasma antibacterial activities against E. coli 25922. (a) Dose-dependent reduction of colony forming units (CFU) as determined 24 h after exposure to C14(ω5)OOc10O in human plasma (80% final plasma concentration in PBS). Values represent the mean ± SD obtained from three individual plasma donors (mean inoculum was 1.6 ± 0.8 × 10^6 CFU/mL). (b) Time-kill kinetics determined upon E. coli exposure to 0, 2.5, 5, and 10 µM C14(ω5)OOc10O (from top to bottom, respectively). Values represent the mean ± SD obtained from two individual plasma samples, each subjected to two independent assays. Panels (c–f), respectively, show the OAC’s concentration-dependent activities in plasma samples obtained from pig, cat, sheep, and dog. The three dashed horizontal lines respectively represent the average CFU count of the vehicle control (upper line), the inoculum (middle line), and the limit of detection (lower line), i.e., log10 50 CFU/mL = 1.69. Green stars (*) denote lack of detectable CFU.

[6] = system: E. coli strain AG100; assay: microbe, parasite or virus in culture; format: cell-based, Escherichia coli
Description: as §2, §1
(§3) The wild-type E. coli strain AG100 and its isogenic ΔacrAB mutant AG100A were used to determine the MIC of OACs and of two known acrAB-TolC substrates: the AMP LL-37 and the macrolide antibiotic erythromycin that are normally inefficient against GNB.

[7] = system: E. coli ΔacrAB mutant AG100A; assay: microbe, parasite or virus in culture; format: cell-based, Escherichia coli
Description: as §2, §1, §3

[8] = system: extremely resistant GNB strains; assay: Erythromycin MIC in LB medium against GNB; format: cell-based; conditions: greater than highest tested concentration, read-out: Erythromycin MIC alone
Description: (§4) Bacterial sensitization: Sensitization to antibiotics was determined using the checkerboard method in presence of sub-MIC OAC (2.5, 5, and 10 μM), as described. The synergistic effect of the combinations was expressed in terms of the Sensitization Factor (SF), where SF = (MIC antibiotic alone)/(MIC antibiotic upon combination). Data were obtained from three independent assays performed in duplicate.
(§5) Figure 4 Hydrophobicity dependence of antibiotics potentiation by lipopeptide analogs. Sensitization of GNB to rifampin and erythromycin (upper and lower panel, respectively) was assessed by MIC experiments performed in LB medium, in presence or absence of an OAC analog whose A2 position was gradually shortened (from c10 to c6). Pseudomonas aeruginosa 27853 (Pa, blue), Klebsiella pneumoniae 1287 (Kp, green), Escherichia coli 25922 (Ec, red), and Acinetobacter baumannii 19606 (Ab, black).

[9] = system: Acinetobacter baumannii 19606; assay: Sensitization to rifampin, checkerboard method; format: cell-based; conditions: Acinetobacter baumannii, 19606, A. baumannii, LB
Description: as §4, §5

[10] = system: Escherichia coli 25922; assay: Sensitization to rifampin, checkerboard method; format: cell-based; conditions: Escherichia coli, 25922, E. coli, LB
Description: as §4, §5

[11] = system: Klebsiella pneumoniae; assay: Sensitization to rifampin, checkerboard method; format: cell-based; conditions: Klebsiella pneumoniae, K. pneumoniae, LB
Description: as §4, §5

[12] = system: Pseudomonas aeruginosa 27853; assay: Sensitization to rifampin, checkerboard method; format: cell-based; conditions: Pseudomonas aeruginosa, 27853, P. aeruginosa, LB
Description: as §4, §5

[13] = system: P. aeruginosa 27853; assay: Excisional skin wound infection model, topical treatment; format: in vivo, mouse; conditions: hypromellose gel 1% (w/v), 4 h treatment, mice n = 3 per group
Description: Animals: All animal studies were performed using male ICR mice (25 ± 2 gr). The Technion Animal Care and Use committee approved all procedures, care, and handling of animals. Ethics approval codes: IL0800519, IL0640421, IL0550618, IL1811217.
For efficacy assessments, three infection models were used including one with topical treatment and two with systemic treatment. • Excisional skin wound infection model: mice were anesthetized by intraperitoneal administration of a mixture of ketamine 100 mg/kg and xylazine 5 mg/kg in PBS and their backs shaved with electric clippers. The following day mice were similarly anesthetized and were administrated (S.C) 0.05 mg/kg buprenorphine (for pain relief). A 5 mm diameter piece of skin was removed from the middle of the shaved back, with sterile biopsy punch resulting in a full-thickness injury. A total of 20 µL of a mid-logarithmic culture, containing 5 × 10^6 CFU P. aeruginosa 27853 were applied on the wound. Then, 15 min after inoculation, about 50 µL of hypromellose gel (prepared as described) containing OAC, antibiotic, or their combination were applied on the skin and covered with a piece of medical tape. As a control, the vehicle (drug-free gel) was similarly applied on the skin. After a treatment period of 4 h, about 8 mm diameter of skin surrounding the infected area was removed, suspended in PBS, homogenized, serially diluted 10-fold, and plated for CFU enumeration. The number of viable bacteria was determined after overnight incubation at 37 °C. The lower limit of detection was 50 CFU/wound. • Thigh infection model (TI): mice were inoculated intramuscularly with 1 × 10^6 CFU/mouse of mid-logarithmic E. coli 25922 and treated subcutaneously 1 and 3 h after inoculation. Mice were sacrificed 24 h after infection, their thighs excised, homogenized, serially diluted 10-fold, and plated for CFU enumeration. The number of viable bacteria was determined after overnight incubation at 37 °C. […] The number of viable bacteria was determined after overnight incubation at 37 °C. […]

[14] = % acetonitrile required for elution in reversed phase HPLC, C18 column; rounded to nearest whole number; reference peptide; cited from earlier work
Text: Table 1 Biophysical attributes of relevant lipopeptide analogs. | column: H (%)

[15] = light scattering in PBS; reference peptide; cited from earlier work
Text: Table 1 Biophysical attributes of relevant lipopeptide analogs. | column: CAC (µM)

[16] = system: 12 GNB strains; conditions: OD measurements, mean of 12 GNB strains, reference peptide; cited from earlier work
Text: Table 1 Biophysical attributes of relevant lipopeptide analogs. | column: MIC (µM) / LB ^a Medium

[17] = no adjuvant, read-out: Rifampin MIC alone
[18] = with C14(ω5)OOc10O, read-out: Rifampin MIC in presence of adjuvant
[19] = with 10 μM C14(ω5)OOc10O, read-out: Rifampin MIC in presence of adjuvant

Compound	H, hydrophobicity [1]	CAC, critical aggregation concentration [2]	HC50, concentration causing 50% hemolysis compared to water [3]	MIC, LB medium [4]	MIC, human plasma [5]	other results
CCCCCCCCCCCCCC(=O)N[C@@H](CCCN)C(=O)N[C@@H](CCCN)C(=O)NCCCCCCCCCCCC(=O)N[C@@H](CCCN)C(N)=O [C14OOc12O] (Myristoyl-[Orn][Orn][12Ado][Orn]-NH2)	55%	15 ± 1 µM	14 ± 4 µM	3 to 6 µM	>20 µM	MIC ([6]; strain AG100): 3.1 µM; MIC, Ag100A ([7]; isogenic ΔacrAB mutant AG100A): 3.1 µM
CC[C@H]1OC(=O)[C@H](C)[C@@H](O[C@H]2C[C@@](C)(OC)[C@@H](O)[C@H](C)O2)[C@H](C)[C@@H](O[C@@H]2O[C@H](C)C[C@H](N(C)C)[C@H]2O)[C@](C)(O)C[C@@H](C)C(=O)[C@H](C)[C@@H](O)[C@]1(C)O [Erythromycin, reference compound]						MIC ([6]; Escherichia coli, wild-type E. coli AG100): 174 µM; MIC ([7]; Escherichia coli, read-out: MIC, Ag100A): 10.9 µM; MIC [8]: > 512 µg/mL
CCCCC=CCCCCCCCC(=O)N[C@@H](CCCN)C(=O)N[C@@H](CCCN)C(=O)NCCCCCC(=O)N[C@@H](CCCN)C(N)=O [C14(ω5)OOc6O]	47%	>100 µM	>100 µM	>50 µM	5 µM (≈ 3.4 µg/mL)	
CCCCCCCCCCCCCC(=O)N[C@@H](CCCN)C(=O)N[C@@H](CCCN)C(=O)NCCCCCCCCCC(=O)N[C@@H](CCCN)C(N)=O [C14OOc10O]	53%	45 ± 14 µM	28 ± 2 µM	12.5 to 25 µM	10 to 20 µM	
CCCCC=CCCCCCCCC(=O)N[C@@H](CCCN)C(=O)N[C@@H](CCCN)C(=O)NCCCCCCCC(=O)N[C@@H](CCCN)C(N)=O [C14(ω5)OOc8O]	48%	>100 µM	>100 µM	>50 µM	2.5 to 5 µM	
CO[C@H]1/C=C/O[C@@]2(C)Oc3c(C)c(O)c4c(O)c(c(/C=N/N5CCN(C)CC5)c(O)c4c3C2=O)NC(=O)/C(C)=C\C=C\[C@H](C)[C@H](O)[C@@H](C)[C@@H](O)[C@@H](C)[C@H](OC(C)=O)[C@@H]1C [rifampin]						MIC [9, 17]: 2 µg/mL; MIC [9, 18]: 0.0005 µg/mL; MIC [10, 17]: 8 µg/mL; MIC [10, 19]: 0.00025 µg/mL; MIC [11, 17]: 32 µg/mL; MIC [11, 18]: 0.0005 µg/mL; MIC [12, 17]: 32 µg/mL; MIC [12, 19]: 0.001 µg/mL; Reduction of CFU count [13]: 1.7 log10 units
CCCCCCCCCCCCCC(=O)N[C@@H](CCCCN)C(=O)N[C@@H](CCCCN)C(=O)NCCCCCCCCCCCC(=O)N[C@@H](CCCCN)C(N)=O [C14KKc12K] (Myristoyl-KK[12Ado]K-NH2)			12 ± 1 µM		>20 µM	H, hydrophobicity [14]: 55%; CAC, critical aggregation concentration [15]: 20 ± 5 µM; MIC, LB medium [16]: 3 to 6 µM
NCCC[C@H](NC(=O)CCCCCCCCCCCNC(=O)[C@H](CCCN)NC(=O)[C@@H](N)CCCN)C(N)=O [OOc12O] (H-[Orn][Orn][12Ado][Orn]-NH2)	24%	>100 µM	>100 µM	>50 µM	>20 µM	
